Values of other authors as cited in patent US9610289B2, “Combinations of AKT inhibitor compounds and erlotinib, and methods of use” (Genentech, Inc., priority 2011, dated 2017).

Molecular target: T1, topoisomerase I (Homo sapiens, UniProt P11387)
T1 sequence (P11387 1-765): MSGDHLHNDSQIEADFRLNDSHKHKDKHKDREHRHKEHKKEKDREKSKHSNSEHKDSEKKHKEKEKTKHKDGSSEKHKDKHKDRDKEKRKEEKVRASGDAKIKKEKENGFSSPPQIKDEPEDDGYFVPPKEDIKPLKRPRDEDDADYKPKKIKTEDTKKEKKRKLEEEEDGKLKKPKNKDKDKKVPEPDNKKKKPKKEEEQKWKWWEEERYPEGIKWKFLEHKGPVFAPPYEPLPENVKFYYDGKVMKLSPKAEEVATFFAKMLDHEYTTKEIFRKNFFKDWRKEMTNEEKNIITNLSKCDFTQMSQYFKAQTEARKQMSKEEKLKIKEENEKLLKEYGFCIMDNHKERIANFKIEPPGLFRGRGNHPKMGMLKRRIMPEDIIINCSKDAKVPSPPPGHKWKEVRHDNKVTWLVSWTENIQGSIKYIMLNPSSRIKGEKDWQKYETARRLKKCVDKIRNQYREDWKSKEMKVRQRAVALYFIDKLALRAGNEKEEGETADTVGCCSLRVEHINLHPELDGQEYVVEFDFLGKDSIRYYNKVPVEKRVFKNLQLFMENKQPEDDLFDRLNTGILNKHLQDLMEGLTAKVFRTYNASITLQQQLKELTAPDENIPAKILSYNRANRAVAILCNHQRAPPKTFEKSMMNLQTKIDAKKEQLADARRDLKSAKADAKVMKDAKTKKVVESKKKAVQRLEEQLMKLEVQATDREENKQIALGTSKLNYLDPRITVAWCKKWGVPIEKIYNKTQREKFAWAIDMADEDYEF
Details: active metabolite versus irinotecan

CCc1c2c(nc3ccc(O)cc13)-c1cc3c(c(=O)n1C2)COC(=O)[C@]3(O)CC [SN-38, 7-ethyl-10-hydroxy-camptothecin]
more active than irinotecan itself: 200 times
